# Numbered stars: 1 amine (or outer) side, 2 acyl side, 3 side chain; on linkers, the order of the positions; unused ones are H or OH. Bridge positions count the residues as written; N and C are the ends. Square brackets hold non-standard residues; d marks the D form. Peptide text beside a SMILES is read from it. * marks the point of attachment. Cyclopropanecarbonyl(1-CN) = N#CC1(C(=O)*)CC1; 2Thenoyl(5-Cl) = O=C(c1ccc(Cl)s1)*; Benzoyl(4-Cl) = O=C(c1ccc(Cl)cc1)*; X4 = O=C(c1cccc2c1OC(F)(F)O2)*; Cysteamide = C(CS[*:3])N[*:1]; Api = NC1(C(=O)O)CCNCC1; Dap = NC[CH](N)C(=O)O; Mpa = O=C(O)CCS
# Target: MDM2 (Homo sapiens, UniProt Q00987)
# Assay: MDM2 binding screen: displacement of fluorescent p53 peptide probe FP53 (fluorescence polarization)
# Details: for fraction fluorescent probe displaced, Screen: initial screen; for fraction fluorescent probe displaced, Screen / fraction fluorescent probe displaced, Replicate: crude macrocycle reactions; for fraction fluorescent probe displaced: 10 µM macrocycle concentration, crude acylated macrocycle (scaffold Mpa-AA1-AA2-AA3 x carboxylic acid), p53-based fluorescent peptide, human MDM2
# Description: We screened Library 2 in 384-microwell plates by dispensing the target protein MDM2 and reporter peptide into the wells containing the macrocycle reactions.
# The products were screened for displacement of a p53-based fluorescent peptide from human MDM2. Final macrocycle concentrations were 10 µM. For each macrocycle, the MDM2 binding was measured once.
# One fluorescence anisotropy reading was taken with a Tecan Infinite F200 Pro fluorescence plate reader (excitation at 485 nm, emission at 535 nm) at 25 °C. Data was collected and exported using the Tecan Infinite M200 Pro instrument software. The data was analyzed by Excel (version 2016).
# MDM2, sequence (Q00987 whole entry): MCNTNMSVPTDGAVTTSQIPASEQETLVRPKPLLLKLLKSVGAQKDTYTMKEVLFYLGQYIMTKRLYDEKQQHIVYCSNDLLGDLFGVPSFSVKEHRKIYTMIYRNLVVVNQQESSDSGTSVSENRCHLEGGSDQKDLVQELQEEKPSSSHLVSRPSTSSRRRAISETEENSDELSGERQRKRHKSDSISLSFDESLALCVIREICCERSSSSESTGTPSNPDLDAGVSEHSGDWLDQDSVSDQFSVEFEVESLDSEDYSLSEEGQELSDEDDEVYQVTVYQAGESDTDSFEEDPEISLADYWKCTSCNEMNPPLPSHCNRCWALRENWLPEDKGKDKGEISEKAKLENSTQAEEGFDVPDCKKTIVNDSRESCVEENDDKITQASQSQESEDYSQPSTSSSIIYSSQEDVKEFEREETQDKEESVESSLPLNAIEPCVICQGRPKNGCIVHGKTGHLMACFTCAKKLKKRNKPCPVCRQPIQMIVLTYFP
compound,measurement,setting,value
O=C(C=Cc1ccccc1)NCC1NC(=O)c2cccc(c2)CNC(=O)CCSSCCNC(=O)C(Cc2c[nH]c3ccccc23)NC1=O (centres unmarked) [X B5 D3 W Acid 91],"fraction fluorescent probe displaced, Screen",Acid 91,0.16
same,"fraction fluorescent probe displaced, Replicate",Acid 91,0.29
O=C(C=Cc1ccccc1)NC1CC2C(=O)N3CCCC3C(=O)NCCSSCCC(=O)NC(Cc3ccccc3)C(=O)N2C1 (centres unmarked) [X F D5 B1 Acid 91],"fraction fluorescent probe displaced, Screen",Acid 91,-0.05
same,"fraction fluorescent probe displaced, Replicate",Acid 91,-0.11
O=C1CCSSCCNC(=O)C2CN(C(=O)C=Cc3ccccc3)CCN2C(=O)c2cccc(c2)CNC(=O)C(Cc2ccccc2)N1 (centres unmarked) [X F B5 D7 Acid 91],"fraction fluorescent probe displaced, Screen",Acid 91,-0.10
same,"fraction fluorescent probe displaced, Replicate",Acid 91,-0.0333
O=C1CCSSCCNC(=O)c2cccc(c2)CNC(=O)C2CN(C(=O)c3ccc(Cl)cc3)CCN2C(=O)[C@H](Cc2c[nH]c3ccccc23)N1 (some centres unmarked) [X W D7 B5 Acid 25],"fraction fluorescent probe displaced, Screen",Acid 25,0.12
same,"fraction fluorescent probe displaced, Replicate",Acid 25,0.10
O=C1NCCSSCCC(=O)N2CCN(C(=O)c3ccc(Cl)s3)CC2C(=O)N2CCCC2C(=O)NC1Cc1c[nH]c2ccccc12 (centres unmarked) [X D7 B1 W Acid 14],"fraction fluorescent probe displaced, Screen",Acid 14,-0.00483
same,"fraction fluorescent probe displaced, Replicate",Acid 14,0.07
O=C1CCNC(=O)C2(CCN(C(=O)c3ccc(Cl)s3)CC2)NC(=O)CCSSCCNC(=O)[C@H](Cc2c[nH]c3ccccc23)N1 [X D6 B2 W Acid 14],"fraction fluorescent probe displaced, Screen",Acid 14,0.17
same,"fraction fluorescent probe displaced, Replicate",Acid 14,0.20
O=C1CCSSCCNC(=O)[C@@H]2CCCN2C(=O)[C@H](Cc2c[nH]c3ccccc23)NC(=O)[C@H](CNC(=O)c2ccc(Cl)cc2)N1 [X D3 W B1 Acid 25] ([Mpa][Dap](Benzoyl(4-Cl))WP-Cysteamide; disulfide 1-C),"fraction fluorescent probe displaced, Screen",Acid 25,0.12
same,"fraction fluorescent probe displaced, Replicate",Acid 25,0.22
O=C1NC2(CCN(C(=O)c3ccc(Cl)cc3)CC2)C(=O)NCCSSCCC(=O)N2CCC[C@H]2C(=O)N[C@H]1Cc1ccccc1 [X B1 F D6 Acid 25] ([Mpa]PF[Api](Benzoyl(4-Cl))-Cysteamide; disulfide 1-C),"fraction fluorescent probe displaced, Screen",Acid 25,0.09
same,"fraction fluorescent probe displaced, Replicate",Acid 25,0.15
O=C(NCC1NC(=O)C(Cc2c[nH]c3ccccc23)NC(=O)C2CCCN2C(=O)CCSSCCNC1=O)c1ccc(Cl)s1 (centres unmarked) [X B1 W D3 Acid 14] ([Mpa]PW[Dap](2Thenoyl(5-Cl))-Cysteamide; disulfide 1-C; configuration not given here),"fraction fluorescent probe displaced, Screen",Acid 14,0.23
same,"fraction fluorescent probe displaced, Replicate",Acid 14,0.15
O=C1CCSSCCNC(=O)[C@H](Cc2c[nH]c3ccccc23)NC(=O)[C@@H]2CCCN2C(=O)[C@H](CNC(=O)c2ccc(Cl)s2)N1 [X D3 B1 W Acid 14] ([Mpa][Dap](2Thenoyl(5-Cl))PW-Cysteamide; disulfide 1-C),"fraction fluorescent probe displaced, Screen",Acid 14,0.17
same,"fraction fluorescent probe displaced, Replicate",Acid 14,0.10
N#CC1(C(=O)NC[C@@H]2NC(=O)[C@@H]3CCCN3C(=O)CCSSCCNC(=O)[C@H](Cc3ccccc3)NC2=O)CC1 [X-B1-D3-F + A56] ([Mpa]P[Dap](Cyclopropanecarbonyl(1-CN))F-Cysteamide; disulfide 1-C),fraction fluorescent probe displaced,,0
CC(=O)NC[C@@H]1NC(=O)[C@@H]2CCCN2C(=O)CCSSCCNC(=O)[C@H](Cc2ccccc2)NC1=O [X-B1-D3-F + A7] ([Mpa]P[Dap](Ac)F-Cysteamide; disulfide 1-C),fraction fluorescent probe displaced,,0.02548
O=C(NC[C@@H]1NC(=O)[C@@H]2CCCN2C(=O)CCSSCCNC(=O)[C@H](Cc2ccccc2)NC1=O)c1cccc2c1OC(F)(F)O2 [X-B1-D3-F + A38] ([Mpa]P[Dap](X4)F-Cysteamide; disulfide 1-C),fraction fluorescent probe displaced,,0.06653

# Source: publication PMC9250534, “Synthesis and direct assay of large macrocycle diversities by combinatorial late-stage modification at picomole scale” (Nature Communications, 2022)
